Experimental data reported in patent US20220072022A1, “ANTI-AGING AGENT OR LIFE-EXTENDING AGENT” (StaGen Co., Ltd., priority 2019, published 2022).

Key:
[1] = system: C. elegans daf-16 gene variant strain (mu86); assay: Extension of C. elegans (nematode) lifespan by febuxostat, daf-16 variant strain (Example 1); assay type: in vivo
Experimental: (§1) Extension of lifespan by febuxostat was examined using a wild type strain (N2, Bristrol) and a daf-16 gene (nematode ortholog of human transcription factor FOXO; a typical example of shortened lifespan in nematode variant due to a transcription factor that is suppressed by insulin signals) variant strain (mu86). Both strains were bred at 20° C.
(§2) In order to keep the developmental stage of the strains used for lifespan measurement constant, it was waited until food (Escherichia coli) was exhausted and growth of first instar larvae stopped. The nematode was cut and planted together with agar in a petri dish with food.
(§3) Ampicillin (100 μg/ml) was added to a 6 cm NGM plate (standard medium for nematode culture) to inhibit the growth of the food Escherichia coli strain and its associated metabolism, and OP50 (the food Escherichia coli strain) and FBX were added ([…]).
(§4) When the cut and planted nematodes became adults, they were washed out of the petri dish using M9 buffer and collected. The nematodes were suspended in Eppendorf tubes. An equal amount of bleach solution (a mixture of 4N NaOH, hypochlorous acid solution, and M9 buffer at a ratio of 2:3:5) to the nematode suspension was added and mixed. […]
(§5) Life or death was determined for each individual every other day, and the data was recorded. […]
(§6) The lifespan tracking was completed when it was determined that all nematodes had died.

[2] = system: mitochondria of the muscle of C. elegans (N2); assay: Effect of febuxostat on mitochondrial morphology in nematode muscle, electron microscopy (Example 3); assay type: in vivo; conditions: cultured 18 days in the presence of 20 μg/mL of febuxostat, compared with FBX(−), FIG. 5
Experimental: The effect of febuxostat on lifespan was examined using a wild type strain (N2, Bristrol) of C. elegans as a nematode. In addition, mitochondria of the nematode cultured in the absence and presence of febuxostat were compared under electron microscopy.
On the 18th day of culturing, nematodes were fixed by the following method. An M9 buffer comprising 8% ethanol was dropped on a slide glass, and the nematodes were placed therein and allowed to stand until the nematodes stopped moving (about 5 minutes). Next, a fixing solution was placed on another slide glass, and the nematodes that had stopped moving were transferred to the fixing solution. The fixing solution comprises 2% paraformaldehyde+2% glutaraldehyde/0.1M phosphate buffer (pH 7.4), and was adjusted prior to use.
Subsequently, a 22 G injection needle was used to cut the nematodes in the following procedure.
First, the cranial side was cut from the pharynx, and then amputation was performed around Vulva. In this experiment, in order to observe the mitochondria of the muscle behind Vulva with an electron microscope, only the caudal side was collected and placed in an Eppendorf tube comprising a fixing solution (4° C.)
Observation with an electron microscope was carried out by requesting the Hanaichi UltraStructure Research Institute (Okazaki City, Aichi Prefecture) using an electron microscope HITACHI H-7600 (100 kV).

[3] = system: C. elegans wild type strain (N2, Bristrol); assay: Effect of febuxostat on nematode lifespan, UV-killed Escherichia coli plus kanamycin (Example 3); assay type: in vivo; conditions: N2, febuxostat 5, 10, 20 μg/mL, FIG. 4
Experimental: The effect of febuxostat on lifespan was examined using a wild type strain (N2, Bristrol) of C. elegans as a nematode. In addition, mitochondria of the nematode cultured in the absence and presence of febuxostat were compared under electron microscopy. The culturing method and culturing conditions for nematodes (N2) were almost the same as those in Example 1 except for the method for treating the food added to the medium. Generally, Escherichia coli is added to the NGM plate as food for nematodes; however, when Escherichia coli grows, it may affect metabolites, etc. Therefore, a method of adding the antibiotic ampicillin to stop the growth of Escherichia coli is performed. However, it cannot be completely denied that the presence of ampicillin in the NGM plate had some effect. Therefore, instead of adding ampicillin, Escherichia coli was killed by being irradiated with ultraviolet rays, and kanamycin was further added. In this way, Escherichia coli as food was treated differently from Example 1, and it was checked whether the same experimental results as in Example 1 could be obtained. The concentration of febuxostat added to the NGM plate was 5, 10, 20 μg/mL.

[4] = system: C. elegans wild type strain (N2, Bristrol); assay: Extension of C. elegans (nematode) lifespan by febuxostat, wild type strain (Example 1); assay type: in vivo; conditions: wild type strain N2, febuxostat 10 mg/ml, 20° C., FIG. 2
Experimental: as §1, §2, §3, §4, §5, §6

C. elegans = conditions: Non-Patent Documents 13 to 16; cited from earlier work

Cc1nc(-c2ccc(OCC(C)C)c(C#N)c2)sc1C(=O)O [febuxostat]
lifespan compared with the wild type strain ([1]; daf-16 gene variant strain (mu86) with febuxostat): did not reach the same length of lifespan as that of the wild type strain | lifespan ([1]; daf-16 gene variant strain (mu86), febuxostat 10 mg/ml, 20° C., FIG. 3): showed an extension of lifespan | morphology of mitochondria in the muscle [2]: morphology of mitochondria is maintained almost normally | lifespan of nematodes [3]: lifespan of nematodes is extended | lifespan [4]: showed an extension of lifespan

CN(C)C(=N)N=C(N)N [metformin]
lifespan in C. elegans (C. elegans): prolongs the lifespan
